Where two headings read alike, the source gives them in different places.
Key:
[1] = tested on: E. coli KA797 cells carrying KPC-2 position 105 library; type: cell-based; settings: selection with labelled antibiotic
[2] = tested on: E. coli KA797 cells carrying TEM-1 position 105 library; type: cell-based; settings: for Fi carbenicillin AVG: average of replicates; for Fi CAR 1: replicate 1; for Fi CAR 2: replicate 2

SMILES: CC1(C)S[C@@H]2[C@H](NC(=O)C(C(=O)O)c3ccccc3)C(=O)N2[C@H]1C(=O)O (some centres unmarked) [carbenicillin]
- Fi AVG (average fitness of replicates) ([1]; KPC-2 AA 105 = Ala): -1.895
- Fi AVG (average fitness of replicates) ([1]; KPC-2 AA 105 = Arg): -0.930
- Significance of average fitness ([1]; KPC-2 AA 105 = Arg): -
- Fi AVG (average fitness of replicates) ([1]; KPC-2 AA 105 = Asn): -1.475
- Fi AVG (average fitness of replicates) ([1]; KPC-2 AA 105 = Asp): -1.100
- Significance of average fitness ([1]; KPC-2 AA 105 = Asp): -
- Fi AVG (average fitness of replicates) ([1]; KPC-2 AA 105 = Cys): -1.311
- Significance of average fitness ([1]; KPC-2 AA 105 = Cys): -
- Fi AVG (average fitness of replicates) ([1]; KPC-2 AA 105 = Gln): -2.037
- Significance of average fitness ([1]; KPC-2 AA 105 = Gln): -
- Fi AVG (average fitness of replicates) ([1]; KPC-2 AA 105 = Glu): -1.844
- Fi AVG (average fitness of replicates) ([1]; KPC-2 AA 105 = Gly): -1.656
- Significance of average fitness ([1]; KPC-2 AA 105 = Gly): -
- Fi AVG (average fitness of replicates) ([1]; KPC-2 AA 105 = His): 0.833
- Significance of average fitness ([1]; KPC-2 AA 105 = His): +
- Fi AVG (average fitness of replicates) ([1]; KPC-2 AA 105 = Ile): -0.975
- Fi AVG (average fitness of replicates) ([1]; KPC-2 AA 105 = Leu): -1.769
- Significance of average fitness ([1]; KPC-2 AA 105 = Leu): -
- Fi AVG (average fitness of replicates) ([1]; KPC-2 AA 105 = Met): -2.969
- Fi AVG (average fitness of replicates) ([1]; KPC-2 AA 105 = Phe): -1.337
- Significance of average fitness ([1]; KPC-2 AA 105 = Phe): -
- Fi AVG (average fitness of replicates) ([1]; KPC-2 AA 105 = Ser): -2.334
- Significance of average fitness ([1]; KPC-2 AA 105 = Ser): -
- Fi AVG (average fitness of replicates) ([1]; KPC-2 AA 105 = Thr): -0.740
- Significance of average fitness ([1]; KPC-2 AA 105 = Thr): -
- Fi AVG (average fitness of replicates) ([1]; KPC-2 AA 105 = Trp (WT, reference)): 0.000
- Fi AVG (average fitness of replicates) ([1]; KPC-2 AA 105 = Tyr): -1.021
- Significance of average fitness ([1]; KPC-2 AA 105 = Tyr): -
- Fi AVG (average fitness of replicates) ([1]; KPC-2 AA 105 = Val): -2.800
- Significance of average fitness ([1]; KPC-2 AA 105 = Val): -
- WT abs Fi 1 (absolute fitness) ([1]; KPC-2 WT (Trp 105), replicate 1): 0.136
- WT abs Fi 2 (absolute fitness) ([1]; KPC-2 WT (Trp 105), replicate 2): -0.163
- WT abs Fi 3 (absolute fitness) ([1]; KPC-2 WT (Trp 105), replicate 3): 0.473
- Significance (Average fitnes carbenicillin) ([2]; AA 105 Ala): -
- Fi carbenicillin AVG ([2]; AA 105 Ala): -0.528
- Fi CAR 1 ([2]; AA 105 Ala): -0.503
- Fi CAR 2 ([2]; AA 105 Ala): -0.553
- Significance (Average fitnes carbenicillin) ([2]; AA 105 Arg): -
- Fi carbenicillin AVG ([2]; AA 105 Arg): -0.371
- Fi CAR 1 ([2]; AA 105 Arg): -0.360
- Fi CAR 2 ([2]; AA 105 Arg): -0.382
- Fi carbenicillin AVG ([2]; AA 105 Asn): -0.119
- Fi CAR 1 ([2]; AA 105 Asn): -0.088
- Fi CAR 2 ([2]; AA 105 Asn): -0.150
- Significance (Average fitnes carbenicillin) ([2]; AA 105 Asp): -
- Fi carbenicillin AVG ([2]; AA 105 Asp): -1.040
- Fi CAR 1 ([2]; AA 105 Asp): -1.009
- Fi CAR 2 ([2]; AA 105 Asp): -1.070
- Significance (Average fitnes carbenicillin) ([2]; AA 105 Cys): -
- Fi carbenicillin AVG ([2]; AA 105 Cys): -0.639
- Fi CAR 1 ([2]; AA 105 Cys): -0.611
- Fi CAR 2 ([2]; AA 105 Cys): -0.666
- Significance (Average fitnes carbenicillin) ([2]; AA 105 Gln): -
- Fi carbenicillin AVG ([2]; AA 105 Gln): -0.400
- Fi CAR 1 ([2]; AA 105 Gln): -0.384
- Fi CAR 2 ([2]; AA 105 Gln): -0.417
- Significance (Average fitnes carbenicillin) ([2]; AA 105 Glu): -
- Fi carbenicillin AVG ([2]; AA 105 Glu): -0.893
- Fi CAR 1 ([2]; AA 105 Glu): -0.890

Source: article PMC12274840 (The Journal of Biological Chemistry, 2025)
